Test results reported in patent US11198869B2, “Angelman syndrome antisense treatment” (The Texas A&M University System, priority 2017, dated 2021).

What was measured:
[1] = system: paternal Ube3aYFP protein; assay: Paternal Ube3aYFP protein levels by immunofluorescent imaging in mouse primary hippocampal neurons; format: cell-based; conditions: treated 7 DIV, imaged 10 DIV; ASOs 1, 5, 15 μM, Topotecan 300 nM; compared to ASO-C and Veh
Experimental: Based on these findings, mouse-specific ASOs were designed to target a specific region in the Ube3a-AS transcript (Table 6 and FIG. 2A). To test whether ASOs targeting this region reactivate expression of the paternal Ube3a allele, primary hippocampal neuronal cultures were generated from the Ube3aYFP reporter mouse model (Ube3a+/YFP; FIG. 2B) and treated at 7 days in vitro (DIV) with a control ASO [ASO-C (10 uM, n=3)], three ASOs targeting Ube3a-AS [ASO-1.1, ASO-1.2, ASO-3.1 (1 μM, 5 μM, and 15 μM, n=3)], and ASO-B (1 μM, 5 μM, and 15 μM, n=3)]. As a positive control, neurons were also treated with Topotecan [Topo (300 nM, n=3)] and a negative vehicle control [Veh (1%, n=3); FIG. 2 C]. Three days post-treatment (10 DIV), immunofluorescent imaging was used to quantify paternal Ube3aYFP protein levels in individual cells.
Primary cultures of hippocampal neurons were generated from P0-P1 pups (Ube3a^m+/p+ and Ube3a^m+/pYFP) by crossing Ube3a^m+/pYFP males with wild-type C57BL/6J females. Genotypes were determined using methods described previously. Briefly, hippocampal neurons were cultured in Neurobasal A medium (Invitrogen, San Diego, Calif.) supplemented with B27 (Invitrogen) and penicillin/streptomycin (Invitrogen) on 96-well optical bottom plates coated with poly-D-Lysine (152028, Thermo Fisher Scientific) and laminin (23017-01, Thermo Fisher Scientific). […]

UBE3A = UBE3A steady state RNA (qRT-PCR) in GABAergic iPSC-derived neurons; format: cell-based, human; conditions: ASOs 10 μM
Experimental: (§1) Human-specific ASOs were then designed to target this region, which included four ASOs targeting non-polymorphic regions in human and regions conserved (100%) with macaque (Rhesus and Cynomolgus) (Table 7 and FIG. 3A). Human induced pluripotent stem cell (iPSC) neural precursor cells were differentiated into GABAergic neurons for 14 DIV and then treated with a control ASO [ASO-C (10 μM, n=3)], Topotecan [Topo (1 μM, n=2)], and six ASOs targeting UBE3A-AS [ASO-1, ASO-2, ASO-3, ASO-4, ASO-5, and ASO-6 (10 μM, n=3)]. Additionally, an ASO targeting an intronic region downstream of SNORD109B was included (ASO-7). Six days post-treatment (20 DIV), RNA was isolated from the neurons and the steady state RNA levels of UBE3A-AS and UBE3A were estimated relative to the control treatment (FIG. 3B).
The effects of ASO-4 and Topotecan were then examined on the SNORD116, IPW, SNORD115, and SNORD109A RNAs, which are located upstream of the ASO-4 target region (see FIG. 1A).
The potency of ASO-4 was further examined in iPSC-derived neurons at a later time point in differentiation. GABAergic iPSC-derived neurons were treated at 59 DIV with a control ASO [ASO-C, 10 μM (n=3)] and ASO-4 [1 uM, 5 μM, and 10 μM (n=3)], and the steady state RNA levels of UBE3A-AS and UBE3A were measured as described above (FIG. 4G). Unlike neurons treated with ASO-4 at an earlier time point, the RNA levels of UBE3A and UBE3A-AS were highly inversely correlated (FIGS. 4H and 4I). For example, the effect of ASO-4 (10 μM) on UBE3A-AS RNA levels was similar between neurons treated at 14 and 59 DIV [20 DIV: UBE3A-AS: ↓87% (95% confidence intervals (CI): 80 to 95%); 65 DIV: ↓81% (95% CI: 74 to 88%)], whereas the effect of ASO-4 on UBE3A RNA levels was substantially larger in neurons treated at 59 DIV [20 DIV: ↑30% (95% CI: 16 to 44%); 65 DIV: ↑86% (95% CI: 59% to 113%)].
(§2) The potency of ASO-4 and ASO-6.1 was further examined in iPSC-derived neurons at a later time point in differentiation. GABAergic iPSC-derived neurons were treated at 29 DIV with a 10-point ½ log dose response curve of ASO-4 and ASO-6.1 [1 nM, 3 nM, 10 nM, 30 nM, 100 nM, 300 nM, 1 μM, 3 μM, 10 μM, and 30 μM (n=3)]. At 35 DIV, the IC50 and Emax of each ASO was estimated as described above (FIG. 5C-D and Table 14). The dose response curves of ASO-4 and ASO-6.1 were not similar (Parallelism test: F(3,172)=22.7, p<0.0001).
(§3) GABAergic and glutamatergic induced pluripotent stem cell (iPSC) derived neural precursor cells (NRC-100-010-001 and GNC-301-030-001, Cellular Dynamics International, Madison Wis.) were differentiated into neurons according to the manufactures protocol. Briefly, neural precursor cells were thawed and resuspended in chemically defined medium and added to sterile-culture plates coated with poly-D-lysine and laminin. The medium was replaced 24 hr after plating and then one-half of the medium was replaced every 3-5 days afterwards.
(§4) For cultured iPSC-derived neurons, RNA isolation and cDNA synthesis were performed using the Cell-to-CT kit (Thermo Fisher Scientific) in a lysate volume of 55 μl.
The steady state RNA levels of target transcripts were measured using TaqMan quantitative reverse-transcription PCR (qRT-PCR) assays. Total reaction volume was 10 uL, including 2 μl of cDNA, 1× Gene Expression Master mix (4369016, Thermo Fisher Scientific, Waltham, Mass.), and 1× TaqMan primer assay (Thermo Fisher Scientific). Cycling conditions were 2 minutes at 50° C., 10 minutes at 95° C., and 40 cycles of 15 seconds at 95° C. and 1 minute at 60° C., with readings taken at the 60° C. step of every cycle. Reactions were run on a BIO-RAD T1000 CFX96 thermocycler (Bio-Rad Laboratories, Hercules Calif.), with internal control (PPIA, Hs99999904_m1, Thermo Fisher Scientific) and target [UBE3A-AS, Hs01372957_m1; SNORD116-11, Hs04275268_gH; SNORD115, Hs04275288_gH; IPW, Hs03455409_s1; SNORD109A/B, AP47WVR (Thermo Fisher Scientific); UBE3A: forward […] (SEQ ID NO:500); reverse: […]

UBE3A-AS = UBE3A-AS steady state RNA (TaqMan qRT-PCR) in GABAergic iPSC-derived neurons; format: cell-based, human; conditions: ASOs 10 μM
Experimental: as §1
The potency of ASO-4 was further examined given its effect on UBE3A-AS RNA levels. GABAergic iPSC-derived neurons were treated at 14 DIV with a 10-point ½ log dose response curve of ASO-4 and Topotecan, as a positive control and for comparisons between treatment [1 nM, 3 nM, 10 nM, 30 nM, 100 nM, 300 nM, 1 μM, 3 μM, 10 μM, and 30 μM (ASO-4, n=6; Topotecan, n=2)]. At 20 DIV, the steady state RNA levels of UBE3A-AS were measured and dose response curves fitted to estimate the IC50 and Emax (i.e., maximum UBE3A-AS inhibition) (Table 9 and FIG. 4A). […]
Additional ASOs targeting the 5′-end of UBE3A-AS were then designed to optimize the target sequences of ASO-4 (ASO-4.1, ASO-4.2, ASO-4.3, and ASO-4.4) as well as two other target regions, ASO-3 (ASO-3.1 and ASO-3.2) and ASO-6 (ASO-6.1) (Table 11). Additionally, ASO-4 was manufactured at two different vendors for comparative purposes (ASO-4.S, Sigma; ASO-4.I, Integrated DNA Technologies). Human iPSC-derived neurons (GABAergic) were treated at 14 DIV with a […] ½ log dose curve of ASO-3.1, ASO-3.2, ASO-4.S, ASO-4.I, ASO-4.1, ASO-4.2, ASO-4.3, ASO-4.4, and ASO-6.1 [30 nM, 100 nM, 300 nM, 1 μM (n=6)]. At 20 DIV, the IC50 and Emax of each ASO was estimated as described above (FIG. 5A-B and Table 12). […] No significant difference was observed between ASO-4.S and ASO-4.I.
as §2, §3, §4
The steady state RNA levels of target transcripts were measured using TaqMan quantitative reverse-transcription PCR (qRT-PCR) assays. Total reaction volume was 10 uL, including 2 μl of cDNA, 1× Gene Expression Master mix (4369016, Thermo Fisher Scientific, Waltham, Mass.), and 1× TaqMan primer assay (Thermo Fisher Scientific). Cycling conditions were 2 minutes at 50° C., 10 minutes at 95° C., and 40 cycles of 15 seconds at 95° C. and 1 minute at 60° C., with readings taken at the 60° C. step of every cycle. […]

[2] = Topo 1 μM, 14 DIV to 20 DIV, labelled treatment minus ASO-3
[3] = Topo 1 μM, 14 DIV to 20 DIV, labelled treatment minus ASO-R
[4] = Topo 1 μM, treated 14 DIV, RNA 20 DIV, normalized to ASO-C, labelled treatment minus ASO-C
[5] = Topo 1 μM, 14 DIV to 20 DIV, ASO-1 minus labelled treatment
[6] = Topo 1 μM, 14 DIV to 20 DIV, ASO-R minus labelled treatment
[7] = Topo 1 μM, 14 DIV to 20 DIV, Topo minus labelled treatment
[8] = Topo 1 μM, treated 14 DIV, RNA 20 DIV, normalized to ASO-C, ASO-C minus labelled treatment
[9] = 14 DIV to 20 DIV, ASO-5 minus labelled treatment
[10] = Topo 1 μM, 14 DIV to 20 DIV, labelled treatment minus ASO-6

Row | Substance | paternal Ube3aYFP protein levels [1] | Difference, UBE3A RNA level (UBE3A; [2]) | Difference, UBE3A RNA level (UBE3A; [3]) | Difference, UBE3A RNA level (UBE3A; [4]) | Difference, UBE3A-AS RNA level (UBE3A-AS; [5]) | Difference, UBE3A-AS RNA level (UBE3A-AS; [6]) | Difference, UBE3A-AS RNA level (UBE3A-AS; [7]) | Difference, UBE3A-AS RNA level (UBE3A-AS; [8]) | Difference, UBE3A-AS RNA level (UBE3A-AS; 14 DIV to 20 DIV, ASO-3 minus labelled treatment) | Difference, UBE3A-AS RNA level (UBE3A-AS; [9]) | Difference, UBE3A RNA level (UBE3A; [10]) | Difference, UBE3A RNA level (UBE3A; Topo 1 μM, 14 DIV to 20 DIV, labelled treatment minus ASO-5) | Difference, UBE3A RNA level (UBE3A; 14 DIV to 20 DIV, labelled treatment minus Topo (1 μM))
1 | C^O*C^O*A^O*C^O*A^O*t*t*t*c*c*t*c*t*c*a*U^O*G^O*G^O*A^O*A^O [ASO-1.1] | level similar to that achieved by the optimal concentration of Topotecan | – | – | – | – | – | – | – | – | – | – | – | –
2 | C^O*U^O*G^O*G^O*U^O*g*t*c*a*a*c*a*a*g*c*C^O*A^O*A^O*A^O*G^O [ASO-6] | – | 0.03 | 0.16 | 0.16 | 0.32 | 0.81 | 0.17 | 0.83 | 0.04 | 0.12 | – | – | –
3 | G^O*U^O*U^O*U^O*U^O*c*t*t*c*c*t*c*c*a*c*A^O*G^O*U^O*C^O*U^O [ASO-5] | – | 0.03 | 0.16 | 0.16 | 0.20 | 0.69 | 0.05 | 0.71 | – | – | 0.00 | – | –
4 | U^O*A^O*G^O*A^O*G^O*g*t*g*a*a*g*g*c*c*a*G^O*G^O*C^O*A^O*C^O [ASO-1] | – | 0.05 | 0.18 | 0.18 | – | 0.49 | – | 0.51 | – | – | 0.02 | 0.02 | 0.00
5 | U^O*G^O*U^O*C^O*A^O*g*t*t*t*c*t*c*c*c*t*G^O*A^O*A^O*C^O*A^O [ASO-3] | – | – | 0.13 | 0.13 | 0.28 | 0.77 | 0.13 | 0.79 | – | 0.08 | – | – | –
